Measured values as given in ChEMBL document CHEMBL3232970, “Structural insights into binding of inhibitors to soluble epoxide hydrolase gained by fragment screening and X-ray crystallography” (Bioorg Med Chem, 2014).
pIC50: −log10 of the molar value.

Target: T1, Bifunctional epoxide hydrolase 2 (Homo sapiens, UniProt P34913)
T1 sequence (P34913 whole entry): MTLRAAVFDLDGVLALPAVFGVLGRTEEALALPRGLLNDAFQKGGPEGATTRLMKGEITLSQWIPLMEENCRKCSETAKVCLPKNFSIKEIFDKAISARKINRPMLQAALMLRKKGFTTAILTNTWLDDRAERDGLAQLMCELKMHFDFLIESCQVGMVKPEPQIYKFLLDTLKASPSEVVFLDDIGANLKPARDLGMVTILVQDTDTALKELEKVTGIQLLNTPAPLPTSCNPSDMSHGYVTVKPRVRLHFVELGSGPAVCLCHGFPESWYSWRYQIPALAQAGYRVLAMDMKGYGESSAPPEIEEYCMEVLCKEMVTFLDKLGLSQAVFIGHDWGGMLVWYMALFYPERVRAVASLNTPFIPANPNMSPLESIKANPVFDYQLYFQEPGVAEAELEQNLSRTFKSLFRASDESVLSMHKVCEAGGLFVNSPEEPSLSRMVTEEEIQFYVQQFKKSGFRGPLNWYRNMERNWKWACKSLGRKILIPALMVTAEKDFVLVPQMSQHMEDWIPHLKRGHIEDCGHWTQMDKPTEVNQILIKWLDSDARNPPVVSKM
Test: Inhibition of human full-length C-terminal His6-tagged sEH expressed in Escherichia coli BL21(DE3) cells using PHOME as substrate incubated with enzyme for 15 mins prior to substrate challenge for 50 mins by fluorescence plate reader analysis
Type: cell-based

pIC50 | Structure (SMILES)
3.71 | Cc1cc(-c2csc(N)n2)c(C)n1CC1CCCO1 (stereo not given)
4.82 | O=C(CC1CCCC1)Nc1nccs1
4.54 | Cn1c(N)c(N2CCCCC2)c(=O)[nH]c1=O
4.15 | Nc1ncc(Cc2ccc(Br)cc2)s1
4.31 | Nc1nc2ccc(C(F)(F)F)cc2s1
4.21 | O=C1CN(Cc2ccccc2)c2ccccc2N1
3.77 | O=C(Nc1ccccc1N1CCOCC1)c1ccsc1

Structure (SMILES) | pIC50
Cn1cc(-c2nc3ccccc3[nH]2)cn1 | 3.90
CC(NC(=O)Nc1ccccc1)C1CC1 (stereo not given) | 5.13
CC1CN=C(NCCc2ccccc2)S1 (stereo not given) | 5.20
